Here are results for 46 compounds from US8501783B2, “Conformationally restricted urea inhibitors of soluble epoxide hydrolase” (The Regents of the University of California, priority 2006, dated 2013).

Data set [1] addresses human sEH (Homo sapiens (Human), UniProt P34913). In words: Inhibition of human soluble epoxide hydrolase (IC50; one of three substrate methods).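 Note: enzyme expressed in baculovirus and affinity-purified, assays run in triplicate, with substrate and read-out differing among the three methods.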 It is filed as biochemical.
Data set [2] can be described thus: Pharmacokinetic screening in dogs, oral administration, plasma LC-MS/MS. To be noted: dog, plasma, po, 0.3 mg/kg.

Where two headings read alike, the source gives them in different places.

Sequence of human sEH (P34913 whole entry): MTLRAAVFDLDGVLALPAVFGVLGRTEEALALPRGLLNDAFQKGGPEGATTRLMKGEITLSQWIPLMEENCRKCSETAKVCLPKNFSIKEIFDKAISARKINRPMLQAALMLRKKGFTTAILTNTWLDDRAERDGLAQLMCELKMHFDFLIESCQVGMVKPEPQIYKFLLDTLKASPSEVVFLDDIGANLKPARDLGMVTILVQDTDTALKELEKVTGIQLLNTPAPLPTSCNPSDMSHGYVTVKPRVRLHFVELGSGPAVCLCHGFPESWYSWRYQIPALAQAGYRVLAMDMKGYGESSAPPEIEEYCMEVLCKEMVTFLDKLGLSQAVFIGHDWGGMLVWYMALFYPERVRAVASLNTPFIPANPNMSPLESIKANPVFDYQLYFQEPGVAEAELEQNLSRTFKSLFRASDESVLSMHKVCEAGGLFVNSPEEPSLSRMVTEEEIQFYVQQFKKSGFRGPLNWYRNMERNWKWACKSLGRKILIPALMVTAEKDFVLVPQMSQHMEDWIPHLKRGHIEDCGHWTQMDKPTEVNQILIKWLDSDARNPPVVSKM

On to `O=C(NCC1CCN(C(=O)C(F)(F)F)CC1)NC12CC3CC(CC(C3)C1)C2` [Compound 1556], for which the IC50 – broadly, the concentration that gives 50% inhibition – in data set [1] (recombinant human sEH) is 1.8 nM.

Regarding `O=C(NC1CCN(C(=O)c2ccccc2)CC1)NC1CCN(C(=O)c2ccccc2)CC1` [Compound 1605, 1,3-Bis-(1-benzoyl-piperidin-4-yl)urea], in data set [1] (recombinant human sEH), the IC50 is 4.8 nM.

For the compound `CCC(=O)N1CCC(CNC(=O)NC23CC4CC(CC(C4)C2)C3)CC1` [Compound 1162, N-((1-propanoylpiperidin-4-yl)methyl)-N′-(adamant-1-yl)urea], the IC50 in data set [1] (recombinant human sEH) was determined as 8.7 nM.

`COC(=O)CCC(=O)N1CCC(CNC(=O)NC23CC4CC(CC(C4)C2)C3)CC1` [Compound 1208, 4-{4-[(3-Adamantan-1-yl-ureido)-methyl]-piperidin-1-yl}-4-oxo-butanoic acid methyl ester]: the IC50 in data set [1] (recombinant human sEH) stood at 6.2 nM.

In the case of `O=C(NCC1CCN(C(=O)c2ccncc2)CC1)NC12CC3CC(CC(C3)C1)C2` [Compound 1435], the half-inhibitory concentration (IC50) in data set [1] (recombinant human sEH) was determined as 5.4 nM.

With `CC(C)(C)OC(=O)N1CCC(NC(=O)NC2CCCCC2)CC1` [Compound 1551, 4-(3-Cyclohexyl-ureido)-piperidine-1-carboxylic acid tert-butyl ester], in data set [1] (recombinant human sEH), the IC50 worked out at 4.3 nM.

For `O=C(CC12CC3CC(CC(C3)C1)C2)NC1CCN(C(=O)C(F)(F)F)CC1` [Compound 1644], the IC50 in data set [1] (recombinant human sEH) amounted to 28.3 nM.

In the case of `O=C(NCC1CCN(C(=O)c2ccc(C(=O)O)cc2)CC1)NC12CC3CC(CC(C3)C1)C2` [Compound 1522, 4-{4-[(3-Adamantan-1-yl-ureido)-methyl]-piperidine-1-carbonyl}-benzoic acid], the IC50 in data set [1] (recombinant human sEH) is 11.8 nM.

On to `O=C(Nc1ccc2[nH]cnc2c1)NC1CCCCC1` [Compound 1569, 1-(1H-Benzoimidazol-5-yl)-3-cyclohexyl-urea], for which the IC50 in data set [1] (recombinant human sEH) was determined as 457 nM.

As to `COC(=O)c1ccccc1C(=O)N1CCC(NC(=O)NC23CC4CC(CC(C4)C2)C3)CC1` [Compound 1202, 2-[4-(3-Adamantan-1-yl-ureido)-piperidine-1-carbonyl]-benzoic acid methyl ester], the IC50 in data set [1] (recombinant human sEH) came to 1.7 nM.

As for “Morpholine-4-carboxylic acid 2-methyl-biphenyl-3-ylmethyl ester [Compound 1562]”, in data set [1] (recombinant human sEH), the 50% inhibitory concentration (IC50) is 12000 nM.

In the case of `CCCCCCCCCCCCNC(=O)Nc1ccc2[nH]cnc2c1` [Compound 1568, 1-(1H-Benzoimidazol-5-yl)-3-dodecyl-urea], the IC50 in data set [1] (recombinant human sEH) turned out to be 5020 nM.

As for `O=C(O)CCCC(=O)N1CCC(CNC(=O)NC23CC4CC(CC(C4)C2)C3)CC1` [Compound 1500, 5-{4-[(3-Adamantan-1-yl-ureido)-methyl]-piperidin-1-yl}-5-oxo-pentanoic acid], the IC50 in data set [1] (recombinant human sEH) stood at 41.6 nM.

In data set [1], `COC(=O)c1cccc(C(=O)N2CCC(NC(=O)NC34CC5CC(CC(C5)C3)C4)CC2)c1` [Compound 1203, 3-[4-(3-Adamantan-1-yl-ureido)-piperidine-1-carbonyl]-benzoic acid methyl ester] returned an IC50 of 1.1 nM.

In the case of `O=C(NCC1CCN(C(=O)c2ccccc2C(=O)O)CC1)NC12CC3CC(CC(C3)C1)C2` [Compound 1506, 2-{4-[(3-Adamantan-1-yl-ureido)-methyl]-piperidine-1-carbonyl}-benzoic acid], the IC50 in data set [1] (recombinant human sEH) amounted to 407 nM.

`COC(=O)c1ccccc1C(=O)N1CCC(CNC(=O)NC23CC4CC(CC(C4)C2)C3)CC1` [Compound 1210, 2-{4-[(3-Adamantan-1-yl-ureido)-methyl]-piperidine-1-carbonyl}-benzoic acid methy ester]: the IC50 in data set [1] (recombinant human sEH) worked out at 1.8 nM.

Regarding `O=C(O)CCC(=O)N1CCC(NC(=O)NC23CC4CC(CC(C4)C2)C3)CC1` [Compound 1503, 4-[4-(3-Adamantan-1-yl-ureido)-piperidin-1-yl]-4-oxo-butanoic acid], the IC50 in data set [1] (recombinant human sEH) turned out to be 254 nM.

Turning to `CC(=O)N1CCC(NC(=O)C23CC4CC(CC(C4)C2)C3)CC1` [Compound 1641, Adamantane-1-carboxylic acid (1-acetyl-piperidin-4-yl)-amide], the IC50 in data set [1] (recombinant human sEH) was 12600 nM.

Regarding `COC(=O)CCC(=O)N1CCC(NC(=O)NC23CC4CC(CC(C4)C2)C3)CC1` [Compound 1205, 4-[4-(3-Adamantan-1-yl-ureido)-piperidin-1-yl]-4-oxo-butanoic acid methyl ester], the IC50 in data set [1] was found to be 9 nM.

For the compound `CC(=O)N1CCC(CNC(=O)NC23CC4CC(CC(C4)C2)C3)CC1` [Compound 1156, N-((1-acetylpiperidin-4-yl)methyl)-N′-(adamant-1-yl)urea], the AUC (as a rule, the area under the concentration-time curve, a measure of exposure) in data set [2] is 0.0817 µM·h.

Consider `CN(C)c1cccc2c(S(=O)(=O)N3CCC(NC(=O)Nc4ccc(OC(F)(F)F)cc4)CC3)cccc12` [Compound 1710, 1-[1-(5-dimethylamino-naphthalene-1-sulfonyl)-piperidin-4-yl]-3-(4-trifluoromethoxy-phenyl)-urea], for which, in data set [1] (recombinant human sEH), the IC50 was found to be 0.8 nM.

With `O=C(NCC1CCN(C(=O)c2ccccn2)CC1)NC12CC3CC(CC(C3)C1)C2` [Compound 1207], the IC50 in data set [1] (recombinant human sEH) stood at 7.6 nM.

The compound `O=C(NC1CCN(C(=O)c2ccncc2)CC1)NC12CC3CC(CC(C3)C1)C2` [Compound 1433, N-(1-(pyridine-4-carbonyl)piperidin-4-yl)-N′-(adamant-1-yl)urea] yielded an IC50 in data set [1] of 1.7 nM.

With `O=C(Oc1cccc(-c2ccccc2)c1)N1CCOCC1` [Compound 1561, Morpholine-4-carboxylic acid biphenyl-3-yl ester], in data set [1] (recombinant human sEH), the IC50 was 65300 nM.

For the compound `O=C(Nc1ccc(OC(F)(F)F)cc1)NC1CCNCC1` [Compound 1570, 1-Piperidin-4-yl-3-(4-trifluoromethoxy-phenyl)-urea], the IC50 in data set [1] (recombinant human sEH) was 2320 nM.

`O=C(NC1CCN(C(=O)c2cccnc2)CC1)NC12CC3CC(CC(C3)C1)C2` [Compound 1434, N-(1-(Pyridine-3-carbonyl)piperidin-4-yl)-N′-(adamant-1-yl)urea] yielded an IC50 in data set [1] of 2.1 nM.

In the case of `O=C(NC1CCN(C(=O)c2ccc(C(=O)O)cc2)CC1)NC12CC3CC(CC(C3)C1)C2` [Compound 1523, 4-[4-(3-Adamantan-1-yl-ureido)-piperidine-1-carbonyl]-benzoic acid], inhibition in data set [1] was half-maximal at 3.3 nM (IC50).

With `O=C(NCC1CCN(C(=O)c2cccnc2)CC1)NC12CC3CC(CC(C3)C1)C2` [Compound 1436, N-((1-(pyridine-3-carbonyl)piperidin-4-yl)methyl)-N′-(adamant-1-yl)urea], in data set [1] (recombinant human sEH), the IC50 worked out at 7.3 nM.

As for `COC(=O)c1cccc(C(=O)N2CCC(CNC(=O)NC34CC5CC(CC(C5)C3)C4)CC2)c1` [Compound 1209, 3-{4-[(3-Adamantan-1-yl-ureido)-methyl]-piperidine-1-carbonyl}-benzoic acid methy ester], the 50% inhibitory concentration (IC50) in data set [1] (recombinant human sEH) was 4.1 nM.

In data set [1], `O=C(NC1CCN(C(=O)c2cccc(C(=O)O)c2)CC1)NC12CC3CC(CC(C3)C1)C2` [Compound 1505, 3-[4-(3-Adamantan-1-yl-ureido)-piperidine-1-carbonyl]-benzoic acid] yielded an IC50 of 10.1 nM.

Turning to `O=C(NC1CCN(C(=O)c2ccccc2C(=O)O)CC1)NC12CC3CC(CC(C3)C1)C2` [Compound 1507, 2-[4-(3-Adamantan-1-yl-ureido)-piperidine-1-carbonyl]-benzoic acid], the IC50 in data set [1] worked out at 161 nM.

As for `O=C(NC1CCCCC1)NC1CCNCC1` [Compound 1602], the IC50 in data set [1] (recombinant human sEH) was found to be 562 nM.

Take `O=C(Nc1ccc(OC(F)(F)F)cc1)NC1CCN(C(=O)C(F)(F)F)CC1` [Compound 1591, 1-[1-(2,2,2-Trifluoro-acetyl)-piperidin-4-yl]-3-(4-trifluoromethoxy-phenyl)-urea]: the IC50 in data set [1] (recombinant human sEH) stood at 0.4 nM.

Take `O=C(NCc1ccncc1)Oc1cccc(-c2ccccc2)c1` [Compound 1557, Pyridin-4 ylmethyl-carbamic acid biphenyl-3-yl ester]: the IC50 in data set [1] (recombinant human sEH) amounted to 11500 nM.

With `O=C(O)CCC(=O)N1CCC(CNC(=O)NC23CC4CC(CC(C4)C2)C3)CC1` [Compound 1502, 4-{4-[(3-Adamantan-1-yl-ureido)-methyl]-piperidin-1-yl}-4-oxo-butanoic acid], in data set [1] (recombinant human sEH), the IC50 worked out at 174 nM.

Take `CCCCCCCCCCCCNC(=O)Nc1ccc2[nH]ccc2c1` [Compound 1553, 1-Dodecyl-3-(1H-indol-5-yl)-urea]: the IC50 in data set [1] (recombinant human sEH) worked out at 639 nM.

In the case of `Cc1ccc(S(=O)(=O)N2CCC(NC(=O)Nc3ccc(OC(F)(F)F)cc3)CC2)cc1` [Compound 1711, 1-[1-(Toluene-4-sulfonyl)-piperidin-4-yl]-3-(4-trifluoromethoxy-phenyl)-urea], the IC50 in data set [1] (recombinant human sEH) was determined as 0.4 nM.

As to `CCCC(=O)N1CCC(CNC(=O)NC23CC4CC(CC(C4)C2)C3)CC1` [Compound 1120, N-((1-butyrylpiperidin-4-yl)methyl)-N′-(adamant-1-yl)urea], the IC50 in data set [1] (recombinant human sEH) stood at 6.7 nM.

Regarding `O=C(N1CCC(NC(=O)C23CC4CC(CC(C4)C2)C3)CC1)C(F)(F)F` [Compound 1643, Adamantane-1-carboxylic acid [1-(2,2,2-trifluoro-acetyl)-piperidin-4-yl]-amide], the IC50 in data set [1] (recombinant human sEH) worked out at 4210 nM.

As to `Cc1c(COC(=O)NCc2ccncc2)cccc1-c1ccccc1` [Compound 1558, Pyridin-4-ylmethyl-carbamic acid 2-methyl-biphenyl-3-ylmethyl ester], the 50% inhibitory concentration (IC50) in data set [1] (recombinant human sEH) is 1330 nM.

With `O=C(NC1CCNCC1)NC1CCNCC1` [Compound 1604, 1,3-Di-piperidin-4-yl-urea], the IC50 in data set [1] (recombinant human sEH) came out at 100000 nM.

Consider `O=C(Nc1ccc2[nH]ccc2c1)NC1CCCCC1` [Compound 1554, 1-Cyclohexyl-3-(1H-indol-5-yl)-urea], for which the IC50 in data set [1] (recombinant human sEH) is 87 nM.

Turning to `CCCCCCCCCCCCNC(=O)NC1CCNCC1` [Compound 1550, 1-Dodecyl-3-piperidin-4-yl-urea], the IC50 in data set [1] (recombinant human sEH) amounted to 42.5 nM.

With `COC(=O)c1ccc(C(=O)N2CCC(CNC(=O)NC34CC5CC(CC(C5)C3)C4)CC2)cc1` [Compound 1211, 4-{4-[(3-Adamantan-1-yl-ureido)-methyl]-piperidine-1-carbonyl}-benzoic acid methyl ester], the IC50 in data set [1] (recombinant human sEH) was found to be 1.5 nM.

For `O=C(NCc1cccnc1)Oc1cccc(-c2ccccc2)c1` [Compound 1559, Pyridin-3-ylmethyl-carbamic acid biphenyl-3-yl ester], the IC50 in data set [1] (recombinant human sEH) is 23000 nM.

On to `O=C(NC1CCCCC1)NC12CN3CN(CN(C3)C1)C2` [Compound 1549, 1-Cyclohexyl-3-(1,3,5-triaza-tricyclo[3.3.1.1^3.7]dec-7-yl)-urea], for which the IC50 in data set [1] (recombinant human sEH) was found to be 13600 nM.
